According to patent US20140045805A1, “Fragrance Compositions and Other Compositions Which Contain Naturally Occurring Substances Found in Corals” (priority 2007, published 2014):
Like-named read-outs stand apart in the source and are kept apart here.

Legend:
[1] = tested on: peripheral nasal chemosensory receptors; conditions: androstadienone 27 picograms, muricin aglycone 30 picograms; adapted from Monti-Bloch et al. (1994); cited from earlier work
humans = conditions: Grosser et al., 2000, cited from earlier work; for Effect on negative affect / negativity: administered nasally to humans

Structure (SMILES): C=C[C@H]1CC[C@H]2[C@@H]3CC[C@H]4CC(=O)C=C[C@]4(C)[C@H]3CC[C@]12C
- melting point: 124 to 126 °C

Structure (SMILES): C[C@@]12C=CC[C@H]1[C@@H]1CCC3=CC(=O)CC[C@]3(C)[C@H]1CC2 [androstadienone, androsta-4,16-dien-3-one]
- Depolarization of the electrogram of peripheral nasal chemosensory receptors [1]: robust depolarization
- Effect on negative affect / negativity (humans): decreased negativity
- Effect on negative affect / negativity (humans; listed as Androsta-4,16-dien-3-one): reduction of negative affect
- Effect on social warmth and friendliness, personal well-being and arousal/excitement (humans; humans): no effect
